Source: US12577235B2, “Crystalline form of CXCR2 antagonist and application thereof” (Shenzhen Optimum Biological Technology Co., Ltd, priority 2019, dated 2026)

Columns and labels:
CXCR2 = target: T1, CXCR2 (Homo sapiens, UniProt P25025); experiment: PathHunter CXCR2 β-arrestin cell assay (CXCL8 agonist, chemiluminescence); format: cell-based; settings: listed as crystalline form A of the compound 1
T1 sequence (P25025 1-360): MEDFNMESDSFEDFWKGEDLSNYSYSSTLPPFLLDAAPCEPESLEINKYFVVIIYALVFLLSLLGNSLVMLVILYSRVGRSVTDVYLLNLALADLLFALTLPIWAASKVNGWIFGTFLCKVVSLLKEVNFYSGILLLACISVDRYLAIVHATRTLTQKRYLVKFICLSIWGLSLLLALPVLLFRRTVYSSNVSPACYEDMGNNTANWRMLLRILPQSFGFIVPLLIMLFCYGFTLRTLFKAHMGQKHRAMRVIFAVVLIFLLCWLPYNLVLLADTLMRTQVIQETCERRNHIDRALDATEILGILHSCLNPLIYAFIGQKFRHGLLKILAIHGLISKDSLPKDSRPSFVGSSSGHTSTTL
Method: CXCR2 β-arrestin cells (DiscoverX) of PathHunter® were cultured in standard conditions and inoculated at 20 μL/well to a 384-well white microplate. Before testing, the cells were incubated at 37° C. for an appropriate period of time. The test compound was serially 3-fold diluted in DMSO to give 8 concentrations. Shortly before testing, the serially diluted test samples were further diluted with test buffer to 5 folds of the test concentration. 5 μL of further diluted test samples were added to the cells and the cells were incubated at 37° C. for 30 min. The concentration of vehicle was 1%. 5 μL of 6×EC80 agonist (CXCL8) buffer was then added to the cells, and the cells were incubated at 37° C. for 90 min. The test signal was generated by adding 15 μL (50% v/v) of PathHunter detection mixture reagent in one portion and subsequently incubating the cells for 1 h. The chemiluminescence signal of the microplate was read by a PerkinElmer Envision™ instrument. The biological activities of the test compounds were analyzed by CBIS data analysis kit (ChemInnovation, CA), shown as IC50 values.

[1] = Stability assay of solid crystalline form A at high temperature, high humidity, high temperature and high humidity, and illumination; format: physicochemical; settings: for Stability and druggability (conclusion in words): solid state stress conditions
Method: The samples were placed in conditions of high temperature (60° C.), high humidity (92.5% humidity, 25° C.), high temperature and high humidity (60° C./75% humidity), and under illumination (including in the dark as control) for stability assay. For samples in a 60° C./75% thermostatic incubator and a 92.5% RH desiccator, the vials were sealed using films. On the films 5 small holes were provided to ensure that the sample was in sufficient contact with atmospheric air. For samples at 60° C., under illumination and in the dark, the vials were tightly capped (for the sample in the dark the vial was wrapped with tin foil). The samples were tested on day 10 for high humidity (92.5% humidity) condition, on days 5 and 10 for high temperature (60° C.) condition, on days 10 and 30 for high temperature and high humidity (60° C./75% humidity) condition, and on day 10 for illumination condition.

[2] = high humidity (92.5% humidity, 25° C.), day 0
[3] = high humidity (92.5% humidity, 25° C.), day 10
[4] = high temperature (60° C.), day 0
[5] = high temperature (60° C.), day 5
[6] = high temperature (60° C.), day 10
[7] = in the dark for 10 days (control)

Antagonism against the CXCR2 receptor (in words) (CXCR2): significant inhibitory effect | Appearance ([1]; 60° C./75% humidity, day 0): White powder | Crystalline form ([1]; 60° C./75% humidity, day 0): Crystalline | Appearance ([1]; 60° C./75% humidity, day 10): White powder | Crystalline form ([1]; 60° C./75% humidity, day 10): Crystalline | Appearance ([1]; 60° C./75% humidity, day 30): White powder | Crystalline form ([1]; 60° C./75% humidity, day 30): Crystalline | Appearance [1, 2]: White powder | Crystalline form [1, 2]: Crystalline | Appearance [1, 3]: White powder | Crystalline form [1, 3]: Crystalline | Appearance [1, 4]: White powder | Crystalline form [1, 4]: Crystalline | Appearance [1, 5]: White powder | Crystalline form [1, 5]: Crystalline | Appearance [1, 6]: White powder | Crystalline form [1, 6]: Crystalline | Appearance [1, 7]: White | Crystalline form [1, 7]: Crystalline | Stability and druggability (conclusion in words) ([1]; listed as crystalline form A of compound 1): good stability and druggability | Appearance ([1]; under illumination for 10 days): White | Crystalline form ([1]; under illumination for 10 days): Crystalline
Compound: O=C(Nc1ccc(Cl)c(S(=O)(=O)[C@H]2CCCNC2)c1O)N[C@@H]1CCCc2cc(C(F)(F)F)oc21 [crystalline form A]
Stability and druggability (conclusion in words) ([1]; listed as crystalline form A of the compound 1): good stability and desirable druggability
